Reference: ChEMBL document CHEMBL1201862, “PubChem BioAssay data set” (2004)
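Values below derive from 48-hour exposures of cells grown in 96-well plates, with endpoints linearly interpolated between the two concentrations bracketing the appropriate inhibition level. GI50 = concentration required for 50% inhibition of growth.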 Active and inactive are the calls of the source. No stated cut-off is given here; in the data, active = GI50 up to about 1.1 µM and inactive = higher.

Key:
Test in all cases: DTP human tumour cell line panel, 48 h
[1] = test system: SF-295
[2] = test system: HCC 2998
[3] = test system: SK-MEL-2
[4] = test system: HL-60
[5] = test system: NCI-H460
[6] = test system: CCRF-CEM
[7] = test system: SN12C
[8] = test system: HCT-15
[9] = test system: MOLT-4
[10] = test system: KM-20L2
[11] = test system: Malme-3M
[12] = test system: SK-MEL-5
[13] = test system: IGROV-1
[14] = test system: M14
[15] = test system: M19-MEL
[16] = test system: SNB-19
[17] = test system: EKVX
[18] = test system: DLD-1
[19] = test system: SK-OV-3
[20] = test system: SNB-78
[21] = test system: XF498
[22] = test system: UO-31
[23] = test system: CAKI-1
[24] = test system: OVCAR-4
[25] = test system: UACC-62
[26] = test system: U-251
[27] = test system: OVCAR-8
[28] = test system: DMS-273
[29] = test system: HT-29
[30] = test system: OVCAR-3
[31] = test system: NCI-H23
[32] = test system: 786-0
[33] = test system: SK-MEL-28
[34] = test system: HOP-18
[35] = test system: COLO 205
[36] = test system: SW-620
[37] = test system: SF-539
[38] = test system: RXF 393
[39] = test system: A498
[40] = test system: NCI-H226
[41] = test system: ACHN
[42] = test system: NCI-H522
[43] = test system: SR
[44] = test system: TK-10
[45] = test system: HCT-116
[46] = test system: UACC-257
[47] = test system: HOP-62
[48] = test system: A549
[49] = test system: SF-268
[50] = test system: HOP-92
[51] = test system: SNB-75
[52] = test system: LXFL 529
[53] = test system: KM12
[54] = test system: DMS-114

Which GI50 [1] does the source give for `Cc1cccc(C)c1N1C(=O)C(=O)C(c2nc3ccccc3s2)/C(=N/NC(=O)NN)C1=O` (centres undefined) here?
The GI50 was > 100 µM (inactive).

What about the GI50 [2] of the same molecule?
Its GI50 is > 100 µM (inactive).

What about the GI50 [3] of the same molecule?
The GI50 was > 100 µM (inactive).

What about the GI50 [4] of the same molecule?
Its GI50 is > 100 µM (inactive).

And the GI50 [5]?
The GI50 was > 100 µM (inactive).

What about the GI50 [6] of the same molecule?
Its GI50 is > 100 µM (inactive).

What about the GI50 [7] of the same molecule?
Its GI50 is > 100 µM (inactive).

What about the GI50 [8] of the same molecule?
The GI50 was greater than 100 µM.

What about the GI50 [9] of the same molecule?
The GI50 was > 100 µM (inactive).

What about the GI50 [10] of the same molecule?
Its GI50 is > 100 µM (inactive).

What about the GI50 [11] of the same molecule?
The GI50 was > 100 µM (inactive).

And the GI50 [12]?
The GI50 was > 100 µM (inactive).

What about the GI50 [13] of the same molecule?
The GI50 was > 100 µM (inactive).

And the GI50 [14]?
The GI50 was > 100 µM (inactive).

And the GI50 [15]?
Its GI50 is > 100 µM (inactive).

What about the GI50 [16] of the same molecule?
The GI50 was > 100 µM (inactive).

And the GI50 [17]?
Its GI50 is > 100 µM (inactive).

And the GI50 [18]?
Its GI50 is > 100 µM (inactive).

And the GI50 [19]?
Its GI50 is > 100 µM (inactive).

What about the GI50 [20] of the same molecule?
The GI50 was > 100 µM (inactive).

What about the GI50 [21] of the same molecule?
The GI50 was > 100 µM (inactive).

And the GI50 [22]?
The GI50 was > 100 µM (inactive).

And the GI50 [23]?
The GI50 was > 100 µM (inactive).

And the GI50 [24]?
The GI50 was > 100 µM (inactive).

What about the GI50 [25] of the same molecule?
Its GI50 is > 100 µM (inactive).

And the GI50 [26]?
The GI50 was > 100 µM (inactive).

What about the GI50 [27] of the same molecule?
The GI50 was > 100 µM (inactive).

What about the GI50 [28] of the same molecule?
Its GI50 is > 100 µM (inactive).

What about the GI50 [29] of the same molecule?
The GI50 was > 100 µM (inactive).

What about the GI50 [30] of the same molecule?
Its GI50 is > 100 µM (inactive).

What about the GI50 [31] of the same molecule?
The GI50 was > 100 µM (inactive).

And the GI50 [32]?
The GI50 was > 100 µM (inactive).

And the GI50 [33]?
The GI50 was > 100 µM (inactive).

And the GI50 [34]?
Its GI50 is > 100 µM (inactive).

And the GI50 [35]?
The GI50 was > 100 µM (inactive).

What about the GI50 [36] of the same molecule?
Its GI50 is > 100 µM (inactive).

And the GI50 [37]?
Its GI50 is > 100 µM (inactive).

And the GI50 [38]?
Its GI50 is > 100 µM (inactive).

What about the GI50 [39] of the same molecule?
Its GI50 is > 100 µM (inactive).

What about the GI50 [40] of the same molecule?
The GI50 was > 100 µM (inactive).

What about the GI50 [41] of the same molecule?
The GI50 was > 100 µM (inactive).

And the GI50 [42]?
The GI50 was > 100 µM (inactive).

What about the GI50 [43] of the same molecule?
The GI50 was > 100 µM (inactive).

And the GI50 [44]?
Its GI50 is > 100 µM (inactive).

And the GI50 [45]?
The GI50 was > 100 µM (inactive).

And the GI50 [46]?
The GI50 was > 100 µM (inactive).

What about the GI50 [47] of the same molecule?
The GI50 was > 100 µM (inactive).

What about the GI50 [48] of the same molecule?
The GI50 was > 100 µM (inactive).

What about the GI50 [49] of the same molecule?
Its GI50 is > 100 µM (inactive).

What about the GI50 [50] of the same molecule?
The GI50 was > 100 µM (inactive).

What about the GI50 [51] of the same molecule?
Its GI50 is > 100 µM (inactive).

And the GI50 [52]?
The GI50 was > 100 µM (inactive).

What about the GI50 [53] of the same molecule?
Its GI50 is > 100 µM (inactive).

What about the GI50 [54] of the same molecule?
Its GI50 is > 100 µM (inactive).
